Experimental data: patent publication US20120282346A1, “BRIMONIDINE COMPOSITIONS FOR TREATING ERYTHEMA” (priority 2007, published 2012)

System: erythema
Conditions: high dosage gel (0.20% by weight brimonidine tartrate), applied topically each day for 28 days; across all visits (days 1, 14, 28), evaluated up to eight hours; patients with moderate to severe erythema; p<0.001
Description: A double-blind, placebo-controlled study was conducted at six centers of 110 patients with moderate to severe erythema. […] On days 1, 14, and 28, patients applied the gel under the supervision of clinical staff in the study centers, and were evaluated at set intervals for up to eight hours.
Evaluation led to a Clinician's Erythema Assessment Score (CEA). Each patients' erythema was rated on a scale from 0 to 4, with 0 being the rating for no erythema and 4 being the rating for extreme erythema.
Also, a side effect profile was established.

SMILES: Brc1c(N=C2NCCN2)ccc2nccnc12.O=C(O)C(O)C(O)C(=O)O [brimonidine tartrate, 5-bromo-6-(2-imidazolidinylideneamino) quinoxaline L-tartrate]
- reduction in the average CEA (Clinician's Erythema Assessment Score, scale 0 to 4): statistically significant reduction
